Laboratory results published in the supplement of paper PMC10307832.

Legend:
BI-D1870 + Navitoclax = compound: CC(C)CCN1c2nc(Nc3cc(F)c(O)c(F)c3)ncc2N(C)C(=O)C1C [BI-D1870] + CC1(C)CCC(c2ccc(Cl)cc2)=C(CN2CCN(c3ccc(C(=O)NS(=O)(=O)c4ccc(N[C@H](CCN5CCOCC5)CSc5ccccc5)c(S(=O)(=O)C(F)(F)F)c4)cc3)CC2)C1 [Navitoclax] (partner 0.5 µM); experiment: relative viability (nuclei count vs DMSO), 5 days (fraction); higher = more cells survive
How it was run: (§1)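 Lung cancer cell lines were pin-tool dosed in 1536-well plates on the day after seeding, with either a lone drug or a fixed anchor-drug dose plus five library-drug doses (not always all listed) in √10 steps. Nuclei were counted on 4× images after 5 days. Relative viability is the ratio of treated-well to vehicle-well nuclei counts, with each value a median of duplicate plates.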

Zebularine + Foretinib = compound: O=c1ncccn1[C@@H]1O[C@H](CO)[C@@H](O)[C@H]1O [Zebularine] + COc1cc2c(Oc3ccc(NC(=O)C4(C(=O)Nc5ccc(F)cc5)CC4)cc3F)ccnc2cc1OCCCN1CCOCC1 [Foretinib] (partner 0.25 µM); experiment: as above
How it was run: as §1

Cell Line	relative viability (BI-D1870 + Navitoclax; first compound 0.04 µM)	relative viability (BI-D1870 + Navitoclax; first compound 0.1265 µM)	relative viability (BI-D1870 + Navitoclax; first compound 0.4 µM)	relative viability (BI-D1870 + Navitoclax; first compound 1.265 µM)	relative viability (BI-D1870 + Navitoclax; first compound 4 µM)	relative viability (Zebularine + Foretinib; first compound 1 µM)	relative viability (Zebularine + Foretinib; first compound 3.162 µM)	relative viability (Zebularine + Foretinib; first compound 10 µM)	relative viability (Zebularine + Foretinib; first compound 31.62 µM)	relative viability (Zebularine + Foretinib; first compound 100 µM)
SK-MES-1	1.25	1.23	1.15	1.07	0.692	1.12	0.828	0.794	0.742	0.337
HCC-366	1.15	0.964	1.08	1.01	1.05	0.935	0.922	0.797	0.65	0.163
201T	1.18	1.18	1.19	1.23	1.19	1.16	1.14	–	0.973	0.32
HCC-827	1.07	1.03	1.02	1.02	0.941	1.15	1.07	0.718	0.714	0.317
NCI-H647	1.27	0.978	1.08	1.04	0.848	1.03	0.979	0.333	0.198	0.167
NCI-H2023	1.03	0.811	1.01	0.864	0.894	0.843	0.891	0.713	0.635	0.361
NCI-H520	1.12	1.01	0.938	1.05	0.829	0.895	0.742	0.419	0.395	0.243
RERF-LC-KJ	0.917	0.632	0.979	1.02	0.888	1	0.879	–	0.895	0.871
A-427	1.1	0.958	0.922	0.997	0.999	1.22	0.965	0.579	0.468	0.232
NCI-H441	0.478	0.575	0.692	0.642	0.338	1.72	1.03	0.684	0.361	0.258
NCI-H1703	1.1	0.846	1.02	1.28	0.745	0.338	0.285	–	0.35	0.389
NCI-H1792	0.655	0.666	0.597	0.791	0.608	–	–	–	–	–
Calu-6	0.989	0.829	0.823	0.671	0.352	0.959	0.84	0.702	0.798	0.275
SK-LU-1	1	1.09	0.852	0.54	0.0905	0.884	0.8	0.47	0.651	0.444
PC-3 [JPC-3]	0.812	0.739	0.743	0.809	0.734	1.09	1.07	0.67	0.829	0.444
EMC-BAC-2	1.24	1.06	1.09	1.21	1.18	1.09	1.02	0.856	1.04	1.03
LK-2	1.22	0.885	0.964	1.05	0.945	1.33	1.08	0.529	0.756	0.403

Cell Line	relative viability (BI-D1870 + Navitoclax; first compound 0.04 µM)	relative viability (BI-D1870 + Navitoclax; first compound 0.1265 µM)	relative viability (BI-D1870 + Navitoclax; first compound 0.4 µM)	relative viability (BI-D1870 + Navitoclax; first compound 1.265 µM)	relative viability (BI-D1870 + Navitoclax; first compound 4 µM)	relative viability (Zebularine + Foretinib; first compound 1 µM)	relative viability (Zebularine + Foretinib; first compound 3.162 µM)	relative viability (Zebularine + Foretinib; first compound 10 µM)	relative viability (Zebularine + Foretinib; first compound 31.62 µM)	relative viability (Zebularine + Foretinib; first compound 100 µM)
NCI-H2126	0.876	0.829	0.853	0.904	0.771	1.44	1.09	0.97	1.06	0.883
NCI-H3122	1	0.927	1.1	0.993	1.04	1.02	0.939	–	1.02	0.969
NCI-H1975	1.12	1.22	1.14	1.06	0.54	0.961	0.889	0.362	0.292	0.2
NCI-H1944	1.01	1.02	0.988	1.09	1.06	0.966	0.859	0.858	0.81	0.649
LU99A	0.805	0.744	0.798	0.961	0.911	0.884	0.807	0.577	0.436	0.195
SW 1573	0.93	0.81	1.13	0.852	0.602	0.871	0.767	0.802	0.999	0.885
NCI-H2347	0.778	0.914	0.617	0.975	0.54	1.02	0.856	0.881	0.614	0.813
NCI-H2009	1.22	1.12	1.15	1.09	0.865	1.28	1.25	0.919	0.973	0.373
HCC-15	0.685	0.656	0.681	0.721	0.459	1.21	1.08	0.833	0.861	0.434
HCC-44	1.04	0.944	0.999	1.1	0.847	–	–	–	–	–
COR-L23	1.15	0.951	1.06	1.1	0.479	1.11	0.98	0.621	0.513	0.157
HCC-78	0.736	0.825	0.81	0.987	0.778	0.523	0.547	0.53	0.584	0.477
NCI-H1299	1.04	1	1.09	1.01	0.843	1.12	1.05	0.947	1.11	0.549
NCI-H727	0.459	0.362	0.416	0.607	0.501	0.951	0.85	0.769	1.03	0.723
NCI-H2087	1.14	1.01	1.06	1.09	0.802	1.06	1.04	0.782	0.791	0.284
BEN	0.0563	0.0674	0.0746	0.383	0.0789	0.648	0.44	0.341	0.336	0.194
